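Tested at 5 concentrations; 48 h exposure; 96-well plates; endpoints linearly interpolated, else capped at highest concentration. TGI: concentration producing complete growth inhibition.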 Where only a bound is given, the exact number is not on record here.

Among the test systems are MOLT-4 leukemia; UO-31 renal; M14 melanoma; KM12 colon; SF-268 CNS; RXF 393 renal; SF-295 CNS; HS 578T breast; PC-3 prostate; UACC-62 melanoma; LOX IMVI melanoma; HCT-116 colon; OVCAR-8 ovarian; A549 NSCLC; HCT-15 colon; SNB-75 CNS; RPMI-8226 leukemia; NCI-H226 lung; SK-MEL-5 melanoma; COLO 205 colon.
What all share (test): NCI anticancer screen, dose series, 48 h

On to `Cn1c([C@H](C#N)c2ncccc2[N+](=O)[O-])nc2ccccc21`, for which the TGI is over 100 µM with MOLT-4 leukemia; over 100 µM in the assay on UO-31 renal; over 100 µM in the assay on M14 melanoma; over 100 µM with KM12 colon; over 100 µM in the assay with SF-268 CNS; 97.7 µM in the assay on RXF 393 renal. Also, the TGI in the assay with SF-295 CNS is over 100 µM; with HS 578T breast it was 75.1 µM; with PC-3 prostate, over 100 µM; in the assay on UACC-62 melanoma, over 100 µM; with LOX IMVI melanoma, over 100 µM; with HCT-116 colon, over 100 µM. Also, the TGI is over 100 µM with OVCAR-8 ovarian; over 100 µM in the assay on A549 NSCLC; over 100 µM in the assay on HCT-15 colon; 67.1 µM with SNB-75 CNS; over 100 µM in the assay with RPMI-8226 leukemia; over 100 µM in the assay on NCI-H226 lung.

`CC(=O)ONC(C(=O)C(C)(C)C)C(=O)C(C)(C)C`: the TGI in the assay with MOLT-4 leukemia, in the assay on UO-31 renal, in the assay with M14 melanoma, in the assay on KM12 colon, with SF-268 CNS and in the assay with RXF 393 renal was over 100 µM each time. Further, the TGI in the assay with SF-295 CNS, in the assay on HS 578T breast, in the assay with PC-3 prostate, with LOX IMVI melanoma, with HCT-116 colon and in the assay with OVCAR-8 ovarian was over 100 µM throughout. Further, the TGI in the assay with SK-MEL-5 melanoma, in the assay on COLO 205 colon, with A549 NSCLC, in the assay on HCT-15 colon, in the assay with SNB-75 CNS and in the assay on RPMI-8226 leukemia was over 100 µM in each case. Besides, the TGI with NCI-H226 lung was over 100 µM.

In the case of `C1=Cc2cc3c(c4nccc(c24)N1)OCO3`, the TGI was over 46.8 µM with MOLT-4 leukemia; over 48.8 µM in the assay on UO-31 renal; 54.5 µM with M14 melanoma; 23.6 µM in the assay with KM12 colon; 28.9 µM in the assay on SF-268 CNS; 5.64 µM with RXF 393 renal. For the same compound, the TGI in the assay on SF-295 CNS was 22.3 µM; in the assay with HS 578T breast it was 32.5 µM; in the assay on PC-3 prostate, over 100 µM; in the assay on UACC-62 melanoma it was 32.2 µM; with LOX IMVI melanoma, over 61.1 µM; in the assay on HCT-116 colon it was 17 µM. Also, the TGI in the assay on OVCAR-8 ovarian was over 46.8 µM; with COLO 205 colon it was 23 µM; in the assay with A549 NSCLC it was over 41.7 µM; in the assay with HCT-15 colon it was over 76.7 µM; in the assay with SNB-75 CNS, 28.7 µM; with RPMI-8226 leukemia it was over 65.9 µM. The compound also displayed a TGI in the assay on NCI-H226 lung of 36.7 µM.

On to `CC1(C)/C(=C/N=O)N(O)C(C)(C)N1O`, for which the TGI with UO-31 renal, in the assay with M14 melanoma, in the assay on KM12 colon, in the assay with SF-268 CNS, in the assay with RXF 393 renal and in the assay with SF-295 CNS was over 100 µM each time. For the same compound, the TGI in the assay on HS 578T breast, in the assay with PC-3 prostate, in the assay on UACC-62 melanoma, in the assay on LOX IMVI melanoma, in the assay with HCT-116 colon and in the assay on OVCAR-8 ovarian was over 100 µM in each case. The TGI in the assay on SK-MEL-5 melanoma, in the assay with COLO 205 colon, in the assay with A549 NSCLC, in the assay with HCT-15 colon, in the assay with SNB-75 CNS and in the assay with RPMI-8226 leukemia was over 100 µM each time. The TGI with NCI-H226 lung is over 100 µM.

`CCOC(C)O[C@H]1C(=O)OCC1(C)C` (stereo not given in full): the TGI in the assay with MOLT-4 leukemia, in the assay on UO-31 renal, in the assay on M14 melanoma, with KM12 colon, with SF-268 CNS and in the assay with RXF 393 renal was over 100 µM throughout. The TGI in the assay on SF-295 CNS, with HS 578T breast, in the assay with PC-3 prostate, in the assay with UACC-62 melanoma, in the assay with LOX IMVI melanoma and with OVCAR-8 ovarian was over 100 µM throughout. The TGI in the assay on SK-MEL-5 melanoma, with COLO 205 colon, in the assay on A549 NSCLC, in the assay with HCT-15 colon, with SNB-75 CNS and with RPMI-8226 leukemia was over 100 µM in each case. The same compound came in with a TGI in the assay with NCI-H226 lung of over 100 µM.

On to `CC1(C)C[C@@H]2C1CCC1(C)CC2(O)CC[C@H]1O` (stereo not given in full), for which the TGI in the assay with MOLT-4 leukemia, in the assay with UO-31 renal, in the assay on M14 melanoma, in the assay with KM12 colon, in the assay on SF-268 CNS and in the assay with SF-295 CNS was over 100 µM each time. Besides, the TGI in the assay with HS 578T breast, in the assay with PC-3 prostate, in the assay on UACC-62 melanoma, in the assay on LOX IMVI melanoma, with OVCAR-8 ovarian and in the assay on SK-MEL-5 melanoma was over 100 µM in each case. In addition, the TGI in the assay on COLO 205 colon, with A549 NSCLC, in the assay on HCT-15 colon, in the assay with SNB-75 CNS, in the assay with RPMI-8226 leukemia and in the assay with NCI-H226 lung was over 100 µM throughout.

As for `COc1cc(OC)c2c(C)cc(=O)oc2c1`, the TGI with MOLT-4 leukemia was over 100 µM; in the assay on UO-31 renal it was 79.5 µM; with M14 melanoma it was over 100 µM; in the assay with KM12 colon it was over 100 µM; with SF-268 CNS, over 100 µM; with SF-295 CNS, over 100 µM. For the same compound, the TGI in the assay on HS 578T breast, in the assay on PC-3 prostate, with UACC-62 melanoma, in the assay on LOX IMVI melanoma, in the assay on HCT-116 colon and with OVCAR-8 ovarian was over 100 µM throughout. For the same compound, the TGI in the assay on SK-MEL-5 melanoma, in the assay with COLO 205 colon, with A549 NSCLC, in the assay with HCT-15 colon, in the assay on SNB-75 CNS and with RPMI-8226 leukemia was over 100 µM in each case. In the assay on NCI-H226 lung, the TGI was over 100 µM.

As for `CSc1cc(Cl)c(C)cc1S(=O)(=O)NC(=O)NNc1cccc(C(F)(F)F)n1`, the TGI in the assay with MOLT-4 leukemia was 51.8 µM; with M14 melanoma it was over 100 µM; with KM12 colon, over 100 µM; in the assay on SF-268 CNS, over 100 µM; in the assay with RXF 393 renal it was over 100 µM; with SF-295 CNS it was over 100 µM. Further, the TGI with HS 578T breast, in the assay on PC-3 prostate, in the assay with LOX IMVI melanoma, with HCT-116 colon, with OVCAR-8 ovarian and in the assay on SK-MEL-5 melanoma was over 100 µM each time. In addition, the TGI with COLO 205 colon, with A549 NSCLC, in the assay on HCT-15 colon, in the assay with SNB-75 CNS and with NCI-H226 lung was over 100 µM in each case.

As for `CC(=O)[C@@H](C)C(=O)N1C(=O)OC[C@@]12[C@@H]1CC[C@@H](C1)C2(C)C`, the TGI in the assay with UO-31 renal, with M14 melanoma, in the assay on KM12 colon, in the assay on RXF 393 renal, with SF-295 CNS and in the assay on HS 578T breast was over 100 µM throughout. For the same compound, the TGI in the assay with PC-3 prostate, with UACC-62 melanoma, in the assay on LOX IMVI melanoma, with HCT-116 colon, with OVCAR-8 ovarian and with SK-MEL-5 melanoma was over 100 µM throughout. Further, the TGI in the assay on COLO 205 colon, in the assay on A549 NSCLC, with HCT-15 colon, with SNB-75 CNS, in the assay on RPMI-8226 leukemia and with NCI-H226 lung was over 100 µM each time.

Turning to `O=C1c2ccsc2C(=O)c2sc(CO)cc21`, the TGI is over 100 µM in the assay with MOLT-4 leukemia; 0.317 µM in the assay with UO-31 renal; under 0.0154 µM with M14 melanoma; 3.08 µM in the assay on KM12 colon; 2.31 µM in the assay with SF-268 CNS; 1.9 µM in the assay with RXF 393 renal. Also, the TGI was 0.951 µM in the assay with SF-295 CNS; 0.191 µM in the assay on HS 578T breast; 1.78 µM with PC-3 prostate; 0.122 µM with UACC-62 melanoma; 0.0491 µM with LOX IMVI melanoma; 0.279 µM with HCT-116 colon. Moreover, the TGI was found to be 0.38 µM in the assay on OVCAR-8 ovarian; 0.0163 µM in the assay on SK-MEL-5 melanoma; 1.53 µM in the assay on COLO 205 colon; 0.125 µM in the assay with A549 NSCLC; 0.102 µM in the assay with HCT-15 colon; 0.104 µM in the assay with SNB-75 CNS. In addition, the TGI in the assay with NCI-H226 lung was found to be 0.643 µM.

In the case of `CCCc1c(O)nc(Nc2nc3ccccc3[nH]2)[nH]c1=O`, the TGI with MOLT-4 leukemia, in the assay on UO-31 renal, in the assay with M14 melanoma, with KM12 colon, in the assay on SF-268 CNS and with RXF 393 renal was over 100 µM each time. Also, the TGI in the assay on SF-295 CNS, in the assay with HS 578T breast, in the assay on PC-3 prostate, in the assay with UACC-62 melanoma, with HCT-116 colon and in the assay on OVCAR-8 ovarian was over 100 µM each time. The TGI with SK-MEL-5 melanoma, in the assay with COLO 205 colon, with A549 NSCLC, in the assay on HCT-15 colon, in the assay on SNB-75 CNS and in the assay on RPMI-8226 leukemia was over 100 µM each time. For the same compound, the TGI in the assay with NCI-H226 lung is over 100 µM.

For the compound `C(/C=C/Nc1ccc(Oc2ccccc2)cc1)=Nc1ccc(Oc2ccccc2)cc1`, the TGI in the assay with UO-31 renal turned out to be 35 µM; in the assay on KM12 colon it was 30.3 µM; with SF-268 CNS, 40.7 µM; with RXF 393 renal it was 39.6 µM; with SF-295 CNS, 29.4 µM; in the assay on HS 578T breast, 43.4 µM. Further, the TGI turned out to be 28.4 µM with PC-3 prostate; 28.2 µM in the assay on LOX IMVI melanoma; 31.2 µM with HCT-116 colon; 38.8 µM in the assay with OVCAR-8 ovarian; 43.6 µM with COLO 205 colon; 42 µM with A549 NSCLC. The TGI with HCT-15 colon was 33.6 µM; with SNB-75 CNS, 31.9 µM; with RPMI-8226 leukemia, 54.1 µM; in the assay on NCI-H226 lung, over 100 µM.

Values taken from PubChem BioAssay (NCI).
